The values that follow are results of earlier work, collected in US20240058414A1, “METHODS OF TREATING MELANOCORTIN-4 RECEPTOR PATHWAY-ASSOCIATED DISORDERS” (RHYTHM PHARMACEUTICALS, INC., priority 2020, published 2024).

For data set [1] the following is noted: patients with POMC and LEPR deficiency obesity, earlier pivotal studies.
The conditions of data set [2]: clinical trials; Chen et al. J. Clin. Endocrinol. Metab. 2015.

SMILES strings stand for the structures.

For the compound `CC(=O)N[C@@H](CCCNC(=N)N)C(=O)N[C@H]1CSSC[C@@H](C(N)=O)NC(=O)[C@H](Cc2c[nH]c3ccccc23)NC(=O)[C@H](CCCNC(=N)N)NC(=O)[C@@H](Cc2ccccc2)NC(=O)[C@H](Cc2cnc[nH]2)NC(=O)[C@@H](C)NC1=O` [setmelanotide, Ac-Arg-c(Cys-D-Ala-His-D-Phe-Arg-Trp-Cys)-NH2], in data set [1], the reduction in hunger entry is “statistically significant and clinically meaningful reduction in hunger”; the weight loss result was “rapid and sustained significant and clinically meaningful weight loss”. In data set [2], the “adverse effect on blood pressure” value is on record as “has not been shown to adversely affect blood pressure”.
